Data as given in patent publication US6602710B1, “Screening method for SREBP pathway-specific inhibitors” (Chugai Seiyaku Kabushiki Kaisha, priority 1998, dated 2003).

Tests used:
CHO-K1 cells = assay: amphotericin B cytotoxicity assay (cholesterol synthesis activity) in CHO-K1 cells; format: cell-based, Chinese hamster; settings: 0.1 μg/ml 25-hydroxycholesterol, 24 hours, FIG. 4
25RA cells = settings: amphotericin B at various concentrations in PBS, 4 hours, FIG. 3
DM7 cells = assay: amphotericin B cytotoxicity assay in DM7 cells; format: cell-based, Chinese hamster; settings: compared with 25RA, amphotericin B in PBS, 4 hours, FIG. 3
[1] = tested on: LDL receptor activity of 25RA cells; assay: 125I-LDL binding assay (LDL receptor activity) in 25RA cells; format: cell-based, Chinese hamster; settings: simvastatin + (1 μM), sterols −, 24 hours
Description: (§1) In order to measure LDL receptor activity, the examples of the present invention use the ^125I-LDL binding assay. However, other suitable means may include incorporation of LDL labeled with a fluorescent lipid DiI into cells or ELISA-mediated measurement of the amount of LDL receptors expressed on the surface of cell membranes, and the screening system of the present invention is not specifically limited to those shown herein.
(§2) On day 0, cells were seeded on 6-well plates at a density of 3×10^4 cells/well, and incubated in F-F12. […] On day 4, the cells were incubated at 4° C. for 2 hours, and then washed twice with PBS. Then, incubation was continued at 4° C. in L-F12 (containing 10 mM Hepes-NaOH, pH 7.4) containing 10 μg/ml ^125I-LDL or 10 μg/ml ^125I-LDL and 400 μg/ml LDL. After 5 hours, the cells were washed with buffer B (150 mM NaCl, 50 mM Tris-HCl, 2 mg/ml BSA, pH 7.4), then buffer C (150 mM NaCl, 50 mM Tris-HCl, pH 7.4) each three times, and incubated with 1 ml of buffer D (50 mM NaCl, 10 mM Hepes-NaOH, 4 mg/ml dextran sulfate, pH 7.4) at 4° C. After one hour, buffer D was recovered and assayed for its radioactivity. The protein level in cells remaining in wells was measured by the BCA method to calculate ^125I-LDL binding per mg of […].

[2] = tested on: LDL receptor activity of CHO-K1 cells; assay: 125I-LDL binding assay (LDL receptor activity) in CHO-K1 cells; format: cell-based, Chinese hamster; settings: simvastatin + (1 μM), sterols −, 24 hours
Description: as §1, §2

C[C@H](CCCC(C)(C)O)[C@H]1CC[C@H]2[C@@H]3CC=C4C[C@@H](O)CC[C@]4(C)[C@H]3CC[C@]12C [25-hydroxycholesterol]
cholesterol synthesis activity (amphotericin B cytotoxicity assay) (CHO-K1 cells): inhibited cholesterol synthesis activity

C[C@@H]1[C@H](O)[C@@H](C)/C=C/C=C/C=C/C=C/C=C/C=C/C=C/[C@H](O[C@@H]2O[C@H](C)[C@@H](O)[C@H](N)[C@@H]2O)C[C@@H]2O[C@](O)(C[C@@H](O)C[C@@H](O)[C@H](O)CC[C@@H](O)C[C@@H](O)CC(=O)O[C@H]1C)C[C@H](O)[C@H]2C(=O)O [amphotericin B]
survival of cells treated with amphotericin B (25RA cells): decreased depending on the concentration | survival of cells treated with amphotericin B (DM7 cells): remarkable resistance

CCC(C)(C)C(=O)O[C@H]1C[C@@H](C)C=C2C=C[C@H](C)[C@H](CC[C@@H]3C[C@@H](O)CC(=O)O3)[C@H]21 [simvastatin]
Cell surface binding of [125I]LDL [1]: 20.9 ng/mg protein | Cell surface binding of [125I]LDL [2]: 30.1 ng/mg protein
